From patent EP0781773A1, “NOVEL CARBAPENEM DERIVATIVE” (BANYU PHARMACEUTICAL CO., LTD., priority 1994, dated 1996)
Values after ≈ are worked out from the molar mass of the structure shown. Values joined by “and” are separate entries in the source; they are usually repeats but may differ in a detail not shown here. Equal entries are not always repeated.

Legend:
P.mirabilis MB4955 = test: In vitro antibacterial activity, agar plate dilution method (MIC); type: cell-based; conditions: Proteus mirabilis, MH agar, inoculum 10^6CFU/ml, 37 °C, 16 hours, read-out: Minimum inhibitory Concentration (MIC)
Experimental: (§1) One platinum loopful (inoculum : 10^6CFU/ml) of each test microorganism cultured overnight in Mueller Hinton broth was inoculated into Mueller Hinton agars (MH agar). These media contained an antimicrobial agent in various concentrations. Each test microorganism was cultured at 37 °C for 16 hours, and then the minimum inhibitory concentration (MIC: µg/ml) was assayed. Accordingly, the minimum inhibitory concentrations of compounds of the invention were assayed.

S.aureus BB5939 = test: as above; type: cell-based; conditions: Staphylococcus aureus; S.aureus BB5939 (β-lactamase-producing bacterium); MH agar, inoculum 10^6CFU/ml, 37 °C, 16 hours; read-out: Minimum inhibitory Concentration (MIC)
Experimental: as §1

S.aureus JS1 = test: as above; type: cell-based; conditions: Staphylococcus aureus, MH agar, inoculum 10^6CFU/ml, 37 °C, 16 hours, read-out: Minimum inhibitory Concentration (MIC)
Experimental: as §1

S.aureus MB4970 = test: as above; type: cell-based; conditions: Staphylococcus aureus, MH agar, inoculum 10^6CFU/ml, 37 °C, 16 hours, read-out: Minimum inhibitory Concentration (MIC)
Experimental: as §1

S.aureus CSa929 = test: Agar plate dilution method (MIC), media supplemented with 2 % sodium chloride; type: cell-based; conditions: Staphylococcus aureus, 35 °C, 48 hours, read-out: Minimum inhibitory Concentration (MIC)
Experimental: (§2) One platinum loopful (inoculum : 10^6CFU/ml) of each test microorganism cultured overnight in Mueller Hinton broth was inoculated into Mueller Hinton agars (MH agar). These media contained an antimicrobial agent in various concentrations. […] Accordingly, the minimum inhibitory concentrations of compounds of the invention were assayed. Table 1 The minimum inhibitory concentrations (MIC: µg/ml) of compounds of the invention were assayed according to the above agar plate dilution method using the media supplemented with 2 % sodium chloride as test media and using the culture conditions of 35 °C and 48 hours.

S.aureus MB5393 = test: as above; type: cell-based; conditions: Staphylococcus aureus, 35 °C, 48 hours, read-out: Minimum inhibitory Concentration (MIC)
Experimental: as §2

white rabbits = test: Renal toxicity test using white rabbits; type: in vivo; conditions: for Blood urea nitrogen before administration / Creatinine before administration: just before the administration (baseline)
Experimental: The compound of Example I-72 was made into a liquid with sterilized distilled water for injection so that the drug liquid concentration became 10 %, and intraperitoneally administered once in a dose of 225 mg/kg into 18-week-old male white rabbits from Japan (n=3 per each group). As for a control group, 0.9 % physiological saline was intraperitoneally administered once in the same manner as above. Serum urea nitrogen and creatinine were assayed just before the administration and about 48 hours after the administration. After the blood drawing, each rabbit was killed with leaving them alone under anesthetization and roughly observed, and then autopsy was carried out only on the kidney fixed with neutral 10 % formalin buffer. Each kidney preparation was prepared by a usual method, stained with hematoxylin and eosin and observed by a microscope.

ICR male mice = test: Acute toxicity in mice; type: in vivo; conditions: once into the tail vein, observed 5 days
Experimental: The compound of Example I-26 was used as a representative compound. The test compound was diluted with distilled water for injection so that the drug liquid concentration became 60.75 mg/ml, and administered once, in an administration rate of 10 to 20 µl/min, into the tail vein of each of 4-week-old ICR male mice, according to "Commentary on GLP Standard and Toxicity Test Method Guidline" (supervised by the Examination Section, Drug Secretariat, the Ministry of Welfare; Yakuji-Nippo Co.). The state of death and the general symptoms of mobility were observed over a period of 5 days after the administration.

SD rats = test: Toxicity test on the central nervous system in rats; conditions: 200 µg/rat into the lateral ventricle, n=5, observed for 30 minutes
Text: A chronic guide cannula was inserted into the right lateral ventricle of each of 7-week-old male SD rats (n=5), and fixed by a dental range.

[1] = Mean, n=3, about 48 hours after 225 mg/kg intraperitoneally once
[2] = individual rabbit, about 48 hours after 225 mg/kg intraperitoneally once
[3] = individual rabbit, 225 mg/kg intraperitoneally once, 225 mg/kg

SMILES	MIC (P.mirabilis MB4955) [µg/mL]	MIC (S.aureus BB5939) [µg/mL]	MIC (S.aureus JS1) [µg/mL]	MIC (S.aureus MB4970) [µg/mL]	also measured
C[C@@H](O)[C@H]1C(=O)N2C(C(=O)O)=C(SC(=S)N3Cc4ccc(C[N+]56CC[N+](CC(N)=O)(CC5)CC6)cc4C3)[C@H](C)[C@H]12 [Example III-2]	0.2	0.39	0.1	≤ 0.006	–
C[C@@H](O)[C@H]1C(=O)N2C(C(=O)O)=C(SC(=S)N3CCc4ccccc43)[C@H](C)[C@H]12 [Example I-51]	–	–	–	–	MIC (S.aureus CSa929): 0.39 µg/mL (≈ 0.964 µM); MIC (S.aureus MB5393): 0.39 µg/mL (≈ 0.964 µM)
C[C@@H](O)[C@H]1C(=O)N2C(C(=O)O)=C(SC(=S)N3CCCC(O)CC3)[C@H](C)[C@H]12 (stereo partly drawn) [Example I-26]	0.05 (≈ 0.125 µM)	0.78 (≈ 1.95 µM)	0.2 (≈ 0.499 µM)	0.012 (≈ 0.03 µM)	General symptoms of mobility (ICR male mice; 1000 mg/kg): No abnomality; Surviving number (ICR male mice; 1000 mg/kg): 2/2; General symptoms of mobility (ICR male mice; 1500 mg/kg): No abnomality; Surviving number (ICR male mice; 1500 mg/kg): 2/2; General symptoms of mobility (ICR male mice; 2000 mg/kg): No abnomality; Surviving number (ICR male mice; 2000 mg/kg): 1/1; Case of death (SD rats): 0/5
C[C@@H](O)[C@H]1C(=O)N2C(C(=O)O)=C(SC(=S)N(C)C)[C@H](C)[C@H]12 [Example I-63]	0.1 (≈ 0.303 µM)	1.56 (≈ 4.72 µM)	0.2 (≈ 0.605 µM)	25 (≈ 75.7 µM)	–

Continued by falling MIC (P.mirabilis MB4955), values first:

MIC (P.mirabilis MB4955) [µg/mL]	MIC (S.aureus BB5939) [µg/mL]	MIC (S.aureus JS1) [µg/mL]	MIC (S.aureus MB4970) [µg/mL]	SMILES	also measured
0.1 (≈ 0.226 µM)	0.39 (≈ 0.881 µM)	0.1 (≈ 0.226 µM)	≤ 0.006	CNCC(=O)N1CCN(C(=S)SC2=C(C(=O)O)N3C(=O)[C@H]([C@@H](C)O)[C@H]3[C@H]2C)CC1 [Example I-41]	–
0.05 (≈ 0.139 µM)	1.56 (≈ 4.33 µM)	0.1 (≈ 0.277 µM)	0.025 (≈ 0.0694 µM)	C[C@@H](O)[C@H]1C(=O)N2C(C(=O)O)=C(SC(=S)N(C)CCO)[C@H](C)[C@H]12 [Example I-72]	Blood urea nitrogen after administration (white rabbits; [1]): 18.1 mg/dL; Creatinine after administration (white rabbits; [1]): 1.4 mg/dL; Blood urea nitrogen before administration (white rabbits; Mean, n=3): 17.4 mg/dL; Creatinine before administration (white rabbits; Mean, n=3): 1.3 mg/dL; Blood urea nitrogen after administration (white rabbits; [2]): 16.8 mg/dL and 16.6 mg/dL and 20.8 mg/dL; Creatinine after administration (white rabbits; [2]): 1.3 mg/dl (2×) and 1.5 mg/dl; Blood urea nitrogen before administration (white rabbits; [3]): 15.8 mg/dL and 16.8 mg/dL and 19.6 mg/dL; Creatinine before administration (white rabbits; [3]): 1.2 mg/dL and 1.3 mg/dL and 1.4 mg/dL; Opinion based on the autopsy (white rabbits; individual rabbit, kidney, about 48 hours after 225 mg/kg intraperitoneally once): no abnormality
0.05 (≈ 0.126 µM)	0.39 (≈ 0.981 µM)	0.1 (≈ 0.252 µM)	≤ 0.006	C[C@@H](O)[C@H]1C(=O)N2C(C(=O)O)=C(SC(=S)N3CC=C(CN)CC3)[C@H](C)[C@H]12 [Example IV-5]	–
